Patent publication US6579868B1, “Purine derivatives and adenosine A2 receptor antagonists serving as preventives/remedies for diabetes” (Eisai Co., Ltd., priority 1998, dated 2003)
Counter-ions that a name gives are not always drawn.

What was measured:
[1] = test system: Hepatic cells of primary culture of rats; assay: Suppressing action to NECA-stimulated saccharogenesis (glucose release) in primary cultured rat hepatic cells; assay type: cell-based; settings: 0.1 μM NECA, 1 h incubation, glucose released into medium
Description: Hepatic cells were separated by a collagenase perfusion method from liver of male rats of Wistar strain and subjected to a primary culture in a William's Medium E containing 5% of calf serum, 10^−6 M of insulin, 10^−7 M of dexamethasone and 30 ng/ml of pertussal toxin. After one day, the hepatic cells were washed with a Krebs-Ringer Bicarbonate buffer (pH 7.4 (KRB)) containing 10 mM of HEPES and 0.1% of bovine serum albumin and incubated with KRB at 37° C. After 30 minutes, 0.1 μM of NECA (N-ethylcarboxamide adenosine) and a test compound were added thereto at the same time, the mixture was incubated for additional one hour and the amount of glucose released into an incubation medium was measured.

[2] = test system: spontaneous diabetic mice (KK-A^y/Ta Jcl); assay: Action to hyperglycemia of spontaneous diabetic mice (KK-A^y/Ta Jcl), single oral administration; assay type: in vivo, mouse; settings: 5 h
Description: Animals: Five male KK-A^y/Ta Jcl mice for each group (purchased from Nippon Clair)
Preparation and Administration of Test Compound: A test compound in a dose as shown in Table 2 was suspended in a 0.5% aqueous solution of methyl cellulose and was orally administered in a dose of 10 ml/kg.
Collection of Blood Samples and Determination of Blood Sugar: Blood was collected from tail vein immediately before administration of the test compound and also five hours after the administration and blood sugar was determined.
(§1) Method: Tail vein of a mouse was injured by a razor without an anesthetization to bleed slightly. The blood (15 μl) was collected and immediately mixed with 135 μl of a 0.6 M perchloric acid. Glucose in the supernatant obtained by a centrifugal separation (at 1500 g for 10 minutes at 4° C. using a cooling centrifuge GS-6KR of Beckmann) was determined by a Glucose CII Test Wako (Wako Pure Chemicals).
The result is shown in terms of “(% ratio of the blood sugar after 5 hours from the administration to the blood sugar before the administration)±(standard error)”. The data were subjected to a one-way layout analysis of variance and then subjected to a multiple comparison of a Dunnett type. The case where p<0.05 was judged to be that a significant difference was available.
Animals: Five male KK-A^y/Ta Jcl mice for each group (introduced from Nippon Clair)
Preparation and Administration of Test Compound: A test compound in a dose shown in Table 6 was suspended in a 0.5% aqueous solution of methyl cellulose and was orally administered in a dose of 10 ml/kg.
as §1, with “vein of mouse was” for “vein of a mouse was”
The result is shown in terms of “(% ratio of the blood sugar after 5 hours from the administration to the blood sugar before the administration)±(standard error)”. The data were subjected to a one-way layout analysis of variance and then subjected to a multiple comparison of Dunnett type. The case where p<0.05 was judged that a significant difference was available.

[3] = biological target: T1, Human adenosine A1 receptor (Homo sapiens, UniProt P30542); assay: Adenosine A1 receptor binding experiment (3H-CCPA); settings: human A1 receptor expressed in CHOK1 membranes
T1 construct: expressed in transfected cells; host or cells: CHOK1 cells (membrane specimen)
T1 sequence (P30542 1-326): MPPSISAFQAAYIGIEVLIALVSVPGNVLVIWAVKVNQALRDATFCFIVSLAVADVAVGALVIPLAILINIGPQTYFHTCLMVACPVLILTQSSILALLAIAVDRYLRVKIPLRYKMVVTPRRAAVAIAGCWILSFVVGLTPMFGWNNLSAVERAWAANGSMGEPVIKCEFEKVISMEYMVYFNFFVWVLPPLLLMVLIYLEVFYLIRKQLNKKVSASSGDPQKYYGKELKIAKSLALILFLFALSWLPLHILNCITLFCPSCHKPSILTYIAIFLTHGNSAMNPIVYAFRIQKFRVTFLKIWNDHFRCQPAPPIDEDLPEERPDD
Description: Human adenosine A1 receptor cDNA was subjected to an over-expression in CHOK1 cells and its membrane specimen was suspended in an incubation buffer (20 mM HEPES, 10 mM MgCl2 and 100 mM NaCl; pH 7.4) to make the concentration 66.7 μg/ml. To 0.45 ml of this membrane specimen were added 0.025 ml of tritium-labeled chlorocyclopentyl adenosine (60 nM ^3H-CCPA; 30 Ci/mmol) and 0.025 ml of the compound to be tested. The solution of the compound to be tested was prepared in such a manner that, firstly, the compound was dissolved in DMSO to make 20 mM concentration and then successively diluted each 10-fold using an incubation buffer. The mixture was allowed to stand at 30° C. for 120 minutes, subjected to a quick suction on a glass fiber filter (GF/B; manufactured by Whatman) and immediately washed with 5 ml of ice-cooled 50mM Tris-HCl buffer twice. After that, the glass fiber filter was transferred to a vial bottle, a scintillator was added and the radioactivity on the filter was measured by a liquid scintillation counter. Calculation of the inhibition rate of the test compound to the receptor bond (^3H-CCPA) was carried out by the following expression and, based upon that, IC50 was calculated.
Inhibition Rate (%)=[1−{(Binding amount in the presence of drug-Non-specific binding amount)/(Total binding amount-Non-specific binding amount)}]×100
Total binding amount is a ^3H-CCPA binding radioactivity in the absence of the test compound.
Non-specific binding amount is a ^3H-CCPA binding radioactivity in the presence of 100 μM of RPIA.
Binding amount in the presence of drug is a ^3H-CCPA binding radioactivity in the presence of the test compound of various concentrations.
The inhibition constant (Ki value) in Table was calculated from Cheng-Prusoff's expression.

| SMILES | melting point | IC50 [1] | further results |
| --- | --- | --- | --- |
| Cn1c(-c2cccc(F)c2)nc2c(N)nc(C#CC3(O)CCCC3)nc21 [drawing 260] | – | – | Ki [3]: 0.019 µM |
| Cn1c(-c2cccc(F)c2)nc2c(N)nc(C#CC(C)(C)O)nc21 [Example 64 (sulfate), Hydrochloride] | – | 730 nM | – |
| CCn1c(=O)c2c(nc(/C=C/c3ccc(OC)c(OC)c3)n2C)n(CC)c1=O | – | – | Ki [3]: > 10 µM |
| CCn1c(-c2cccc(F)c2)nc2c(N)nc(CCC(O)(CC)CC)nc21 [Example 235, 1-[6-Amino-9-ethyl-8-(3-fluorophenyl)-9-2-purinyl]-3-ethyl]-3-pentanol Hydrochloride] | – | 1270 nM | – |
| CCn1c(-c2cccc(F)c2)nc2c(N)nc(/C=C/C(C)(C)O)nc21.Cl [Example 210, (E)-4-[6-Amino-9-ethyl-8-(3-fluorophenyl)-9H-2-purinyl]-2-methyl-3-buten-2-ol Hydrochloride] | – | 520 nM | % ratio of the blood sugar after 5 hours from the administration to the blood sugar before the administration ± standard error ([2]; Table 2-3, 10 mg/kg oral, solvent group 70.7 ± 4.6): 51.5 ± 4.6% |
| CCCn1c(=O)c2c(nc(/C=C/c3ccc(OC)c(OC)c3)n2C)n(CCC)c1=O [drawing 263] | – | – | Ki [3]: > 10 µM |
| CCCn1c(-c2cccc(F)c2)nc2c(N)nc(C#CC(C)(C)O)nc21.Cl [Example 171, 4-[6-Amino-8-(3-fluorophenyl)-9-propyl-9H-2-purinyl]-2-methyl-3-butyn-2-ol Hydrochloride] | 167 to 168 °C | 1010 nM | – |
| Cl.Cn1c(-c2cccc(F)c2)nc2c(N)nc(C#CC(C)(C)O)nc21 [Example 64, 4-[6-Amino-8-(3-fluorophenyl)-9-methyl-9H-2-purinyl]-2-methyl-3-butyn-2-ol Hydrochloride] | – | – | % ratio of the blood sugar after 5 hours from the administration to the blood sugar before the administration ± standard error ([2]; Table 2-2, 10 mg/kg oral, solvent group 67.6 ± 2.4): 42.3 ± 4.8% |

More lines, main results first:

| melting point | IC50 [1] | SMILES | further results |
| --- | --- | --- | --- |
| 181 to 184 °C | 220 nM | Cl.Cn1c(-c2cccc(F)c2)nc2c(N)nc(/C=C/C3(O)CCC3)nc21 [Example 215, 1-[(E)-[6-Amino-8-(3-fluorophenyl)-9-methyl-9H-2-purinyl]-1-ethenyl]-1-cyclobutanol Hydrochloride] | – |
| – | 470 nM | Cn1c(-c2cccc(F)c2)nc2c(N)nc(C#CC3(O)CCCC3)nc21 [Example 19, 1-{2-[6-Amino-8-(3-fluorophenyl)-9-methyl-9H-2-purinyl]-1-ethynyl}-1-cyclopentanol Sulfate] | – |
| > 290 °C | 270 nM | Cl.Cn1c(-c2cccc(F)c2)nc2c(N)nc(/C=C/C3(O)CCCC3)nc21 [Example 208, 1-[(E)-2-[6-Amino-8-(3-fluorophenyl)-9-methyl-9H-2-purinyl]-1-ethenyl]-1-cyclopentanol Hydrochloride] | – |
| 160 to 163 °C | 490 nM | CCn1c(-c2cccc(F)c2)nc2c(N)nc(C#CC3(O)CCC3)nc21.Cl [Example 8, 1-{2-[6-Amino-9-ethyl-8-(3-fluorophenyl)-9H-2-purinyl]-1-ethynyl}-1-cyclobutanol Hydrochloride] | % ratio of the blood sugar after 5 hours from the administration to the blood sugar before the administration ± standard error ([2]; Table 2-1, 10 mg/kg oral, solvent group 72.4 ± 4.4): 47.8 ± 4.8% |
| – | 130 nM | Cn1c(-c2cccc(F)c2)nc2c(N)nc(C#CC3(O)CCCCC3)nc21 [Example 31, 1-{2-[6-Amino-8-(3-fluorophenyl)-9-methyl-9H-2-purinyl]1-ethynyl}-1-cyclohexanol Hydrochloride] | – |
| – | 130 nM | CN(C)c1ccc(-n2c(-c3cccc(F)c3)nc3c(N)nc(C#CC4(O)CCCCC4)nc32)cc1 [Example 3, 1-{2-[6-Amino-9-[4-(dimetylamino)phenyl]-8-(3-fluorophenyl)-9H-2-purinyl]-1-ethynyl}-1-cyclohexanol Dihydrochloride] | – |
| 198 to 199 °C | 430 nM | Cl.Cn1c(-c2cccc(F)c2)nc2c(N)nc(C#CC3(O)CCC3)nc21 [Example 89, 1-{2-[6-Amino-8-(3-fluorophenyl)-9-methyl-9H-2-purinyl]-1-ethynyl}-1-cyclobutanol Hydrochloride] | % ratio of the blood sugar after 5 hours from the administration to the blood sugar before the administration ± standard error ([2]; Table 2-2, 30 mg/kg oral, solvent group 67.6 ± 2.4): 38.3 ± 4.4% |
| 198 to 200 °C | 480 nM | CCCn1c(-c2cccc(F)c2)nc2c(N)nc(C#CC3(O)CCCC3)nc21.Cl [Example 169, 1-{2-[6-Amino-8-(3-fluorophenyl)-9-propyl-9H-2-purinyl]-1-ethynyl}-1-cyclopentanol Hydrochloride] | – |
| 144 to 146 °C | 500 nM | CCCn1c(-c2cccc(F)c2)nc2c(N)nc(C#CC3(O)CCC3)nc21.Cl [Example 170, 1-{2-[6-Amino-8-(3-fluorophenyl)-9-propyl-9H-2-purinyl]-1-ethynyl}-1-cyclobutanol Hydrochloride] | – |
| 188 to 191 °C | 200 nM | CCn1c(-c2cccc(F)c2)nc2c(N)nc(C#CC3(O)CCCC3)nc21.Cl [Example 133, 1-{2-[6-Amino-9-ethyl-8-(3-fluorophenyl)-9H-2-purinyl]-1-ethynyl}-1-cyclopentanol Hydrochloride] | – |
